Data published in ChEMBL document CHEMBL2424650, “Optimization of anti-proliferative activity using a screening approach with a series of bis-heterocyclic G-quadruplex ligands” (Bioorg Med Chem Lett, 2013).

How the values were obtained:
[1] = Binding affinity to duplex DNA (unknown origin) assessed as change in melting temperature at 5 uM by FRET assay
[2] = Binding affinity to duplex DNA (unknown origin) assessed as change in melting temperature at 1 uM by FRET assay
[3] = Binding affinity to 21-mer Hsp90A promoter quadruplex (unknown origin) assessed as change in melting temperature at 5 uM by FRET assay
[4] = Binding affinity to 21-mer Hsp90A promoter quadruplex (unknown origin) assessed as change in melting temperature at 1 uM by FRET assay
[5] = Binding affinity to c-kit2 G4-quadruplex DNA (unknown origin) assessed as change in melting temperature at 5 uM by FRET assay
[6] = Binding affinity to c-kit2 G4-quadruplex DNA (unknown origin) assessed as change in melting temperature at 1 uM by FRET assay
Homo sapiens [7] = species on record: Homo sapiens; test: Binding affinity to human F21T G4-telomeric quadruplex assessed as change in melting temperature at 5 uM by FRET assay
Homo sapiens [8] = species on record: Homo sapiens; test: Binding affinity to human F21T G4-telomeric quadruplex assessed as change in melting temperature at 1 uM by FRET assay
[9] = Antiproliferative activity against human […] cells after 96 hrs by SRB assay; assay type: cell-based; settings: WI-38, 96 h
A549 = test: Antiproliferative activity against human A549 cells after 96 hrs by SRB assay; assay type: functional, cell-based; settings: A549, 96 h
[10] = Antiproliferative activity against human RCC4 cells after 96 hrs by SRB assay; assay type: functional, cell-based; settings: RCC4, 96 h
786-0 = test: Antiproliferative activity against human 786-0 cells after 96 hrs by SRB assay; assay type: functional, cell-based; settings: 786-0, 96 h
MCF7 = test: Antiproliferative activity against human MCF7 cells after 96 hrs by SRB assay; assay type: functional, cell-based; settings: MCF7, 96 h

Row | Structure (SMILES) | ΔTm [1] [°C] | ΔTm [2] [°C] | ΔTm [3] [°C] | ΔTm [4] [°C] | ΔTm [5] [°C] | ΔTm [6] [°C] | ΔTm (Homo sapiens [7]) [°C] | ΔTm (Homo sapiens [8]) [°C] | IC50 (A549) [nM] | IC50 (786-0) [nM] | IC50 (MCF7) [nM] | IC50 [9] [nM] | IC50 [10] [nM]
1 | CN1CCN(CCCNc2cccc(-c3ncc(-c4ccc5ccc(-c6cnc(-c7cccc(NCCCN8CCN(C)CC8)c7)o6)cc5c4)o3)c2)CC1 | 0 | 0 | < 10 | 2.5 | < 10 | < 2 | < 10 | < 2 | 1600 | 1200 | 1900 | 3100 | 2100
2 | CN1CCN(CCCNc2ccc(-n3cc(-c4ccc5ccc(-c6cn(-c7ccc(NCCCN8CCN(C)CC8)cc7)nn6)cc5c4)nn3)cc2)CC1 | 0 | 0 | < 10 | < 2 | < 10 | < 2 | < 10 | < 2 | > 25000 | > 25000 | > 25000 | > 25000 | > 25000
3 | CN1CCN(CCCNc2cccc(-n3cc(-c4ccc5ccc(-c6cn(-c7cccc(NCCCN8CCN(C)CC8)c7)nn6)cc5c4)nn3)c2)CC1 | 0 | 0 | < 10 | 5.7 | < 10 | 2.4 | < 10 | 2.9 | > 25000 | 8700 | > 25000 | 15300 | 8400
4 | CN1CCN(CCCNc2cccc(-c3ncc(-c4cccc(-c5cnc(-c6cccc(NCCCN7CCN(C)CC7)c6)o5)c4)o3)c2)CC1 | 0 | 0 | 25.6 | < 2 | 18.3 | < 2 | 20.1 | < 2 | 1200 | 900 | 1000 | 1100 | 1200
5 | CCN(CC)CCNc1cccc(-c2ncc(-c3cccc(-c4cnc(-c5cccc(NCCN(CC)CC)c5)o4)c3)o2)c1 | 0 | 0 | 19.5 | < 2 | 13.6 | < 2 | 13.3 | < 2 | 2500 | 1300 | 3100 | 2800 | 1100

Continued by falling IC50 (A549), values first:

Row | ΔTm [1] [°C] | ΔTm [2] [°C] | ΔTm [3] [°C] | ΔTm [4] [°C] | ΔTm [5] [°C] | ΔTm [6] [°C] | ΔTm (Homo sapiens [7]) [°C] | ΔTm (Homo sapiens [8]) [°C] | IC50 (A549) [nM] | IC50 (786-0) [nM] | IC50 (MCF7) [nM] | Structure (SMILES) | IC50 [9] [nM] | IC50 [10] [nM]
6 | – | 2 | – | 5 | – | < 2 | – | < 2 | 1200 | 2300 | 1400 | c1cc(-c2cnc(-c3cccc(CN4CCCCC4)c3)o2)cc(-c2cnc(-c3cccc(CN4CCCCC4)c3)o2)c1 | 4400 | 1900
7 | 5.3 | 0 | 27.7 | 3.4 | 20.3 | < 2 | 25.9 | < 2 | 1000 | 700 | 1200 | c1cc(-c2cnc(-c3cccc(OCCN4CCCC4)c3)o2)cc(-c2cnc(-c3cccc(OCCN4CCCC4)c3)o2)c1 | 1000 | 1300
8 | 6.8 | 0 | – | < 2 | 17 | < 2 | 24.7 | < 2 | 600 | 1100 | 2100 | c1cc(-c2cnc(-c3cccc(NCCN4CCCC4)c3)o2)cc(-c2cnc(-c3cccc(NCCN4CCCC4)c3)o2)c1 | 1000 | 1100
